Literature values in patent publication US7687082B2, “Complementary compositions to reduce blood glucose levels and treat diabetes” (Astrum Therapeutics Pty. Ltd., priority 2005, dated 2010).
Read-outs that look alike come from different tables or passages of the source.

Columns and labels:
humans [1] = conditions: compared to baseline
[2] = target: T1, adenosine triphosphate (ATP) citrate lyase (Homo sapiens, UniProt P53396)
T1 sequence (P53396 1-1101): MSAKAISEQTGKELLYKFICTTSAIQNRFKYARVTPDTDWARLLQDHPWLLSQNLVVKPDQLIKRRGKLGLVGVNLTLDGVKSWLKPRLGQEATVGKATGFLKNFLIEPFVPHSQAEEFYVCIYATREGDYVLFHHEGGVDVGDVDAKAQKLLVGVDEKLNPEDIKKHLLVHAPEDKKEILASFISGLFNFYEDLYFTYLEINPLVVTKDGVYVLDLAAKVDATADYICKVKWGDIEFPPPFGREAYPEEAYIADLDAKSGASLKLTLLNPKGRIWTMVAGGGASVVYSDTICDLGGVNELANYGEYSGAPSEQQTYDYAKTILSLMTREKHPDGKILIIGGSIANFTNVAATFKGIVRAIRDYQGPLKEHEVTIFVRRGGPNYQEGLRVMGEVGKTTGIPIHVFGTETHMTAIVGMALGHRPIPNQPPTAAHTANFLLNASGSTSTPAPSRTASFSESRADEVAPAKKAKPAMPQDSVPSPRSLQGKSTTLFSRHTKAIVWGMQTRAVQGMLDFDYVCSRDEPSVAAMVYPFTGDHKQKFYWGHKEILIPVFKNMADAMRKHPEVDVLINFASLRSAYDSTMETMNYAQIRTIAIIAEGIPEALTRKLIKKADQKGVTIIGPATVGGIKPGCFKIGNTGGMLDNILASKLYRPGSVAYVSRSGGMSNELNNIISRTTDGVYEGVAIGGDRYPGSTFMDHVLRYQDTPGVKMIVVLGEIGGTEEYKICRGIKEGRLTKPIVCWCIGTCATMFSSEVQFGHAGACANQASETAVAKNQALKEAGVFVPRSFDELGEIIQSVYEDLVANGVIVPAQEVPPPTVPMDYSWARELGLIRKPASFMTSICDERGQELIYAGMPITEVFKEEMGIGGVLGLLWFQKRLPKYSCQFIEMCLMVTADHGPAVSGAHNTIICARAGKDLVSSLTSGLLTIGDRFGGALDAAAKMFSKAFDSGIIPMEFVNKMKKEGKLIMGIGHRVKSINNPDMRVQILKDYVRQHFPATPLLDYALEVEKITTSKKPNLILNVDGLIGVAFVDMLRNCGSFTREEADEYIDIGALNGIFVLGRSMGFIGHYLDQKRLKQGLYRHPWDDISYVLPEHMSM

T2DM patients [3] = conditions: 200 μg twice daily, three weeks
humans [4] = conditions: in vivo
rats = conditions: rat, in vivo
[5] = system: timed-pregnant Sprague-Dawley rats; conditions: rat, in vivo
[6] = system: diabetes mellitus patients
T2DM subjects = conditions: 600 mg twice daily, 4 weeks
T2DM patients [7] = conditions: 12 weeks, compared to placebo control
[8] = with food

Compound: O=C(O)CC(O)(C(=O)O)C(O)C(=O)O (single isomer, unassigned; (-)) [(−)-HCA, (−)-hydroxycitric acid]
- decreased body mass index (BMI) (humans [1]; 2.8 g): −5 to −6%
- decreased body weight (humans [1]; 2.8 g): −5 to −6%
- decreased low density lipoprotein (LDL) (humans [1]; 2.8 g): −13.2%
- decreased total cholesterol (TC) (humans [1]; 2.8 g): −7.2%
- increased high density lipoprotein (HDL) (humans [1]; 2.8 g): +7.3%
- urine level of acetaldehyde (humans [1]; end of study): +83.1%
- urine level of acetone (humans [1]; end of study): +35.6%
- urine level of formaldehyde (humans [1]; end of study): +106.4%
- urine level of malondialdehyde (humans [1]; end of study): +88.4%
- inhibition of ATP citrate lyase [2]: potent inhibitor

Compound: [Cr] [chromium]
- reduction in triglycerides (T2DM patients [3]; compared to baseline): −10.5%
- reduction in glucose (T2DM patients [3]; compared to baseline, p<0.001): −21%
- reduction in cholesterol (T2DM patients [3]; compared to baseline, p<0.02): −9.4%
- glycated hemoglobin (HbA1C) (T2DM patients [3]; from 8.2% at baseline, p<0.01): 7.6%

Compound: CCN(CC)CCO [diethylethanolamine]
- individuals developing asthma (humans [4]): 0.6%
- findings in respiratory epithelium of the anterior nasal turbinate (rats): inflammatory cell infiltration, focal hyperplasia, and squamous metaplasia
- reduction of body weight [5]: 9.5%
- reduction of weight gain [5]: 48%

Compound: O=C(O)CCCCC1CCSS1 (stereo not drawn) [α-LA, α-lipoic acid]
- decrease of levels of peroxides [6]: 34%
- increases in glucose disposal (T2DM subjects; lean T2DM subjects compared to lean controls): 50%
- increases in glucose disposal (T2DM subjects; obese T2DM subjects compared to obese controls): 42%

Compound: chromium picolinate [CrPic]
- insulin level (T2DM patients [7]): significant decrease
- improvement in fasting glucose (T2DM patients [7]; p<0.001): 0.44 mM
- improvement in post-prandial serum glucose (T2DM patients [7]; p<0.001): 1.97 mM

Compound: konjac mannan
- decreased LDL [8]: −23%
- decreased TC [8]: −12.7%
- generalized loss of weight ([8]; average): 2.75 kg
- reduced fasting and postprandial levels of glucose ([8]; on average): −22%
